Assay results reported in US20050282755A1, “Compositions having antimicrobial activity and uses thereof” (priority 2004, published 2005).
Values after ≈ are worked out from the molar mass of the structure shown.

Legend:
S. aureus (Rosenbach) = test: Broth microdilution assay for MIC (20% TSB, 50 mM Na2CO3, 1 mM MgCl2), Table 4A; type: cell-based, Staphylococcus aureus; conditions: 3 log or greater reduction in bacterial growth over 16 hours
Experimental: S. dublin (Lane), S. aureus (Rosenbach), P. acnes, ATCC 6919, E. coli K12 TOP10, and E. coli K12 55099 (protease neg.) bacterial strains were tested in the microbial inhibition assays described hereafter. The S. dublin (Lane), and S. aureus (Rosenbach) strains are available from ATCC (Staphylococcus aureus subsp. aureus Rosenbach (Number: 13150) and Salmonella choleraesuis serotype dublin (Number: 39184)). The strain of P. acnes was purchased from ATCC (strain #6919) (Manassas, Va.). The E. coli K12 strains TOP 10 and 55099 were purchased from Invitrogen (Carlsbad, Calif.) and ATCC respectively. HeLa cells were purchased from ATCC (CCL2). Tryptic soy broth (TSB), Brucella broth, reinforced Clostridial broth and agar were purchased from Becton & Dickinson (distributed by VWR, West Chester, Pa.). All plastic consumables were purchased from VWR (West Chester, Pa.). […]
The minimum inhibitory concentration (MIC) of peptide compositions for S. aureus, S. dublin and E. coli was determined in a broth microdilution assay. […] The MIC for each peptide for each microorganism was determined by three methods. The growth of bacteria was directly determined by measuring the absorption at 600 nm using a Versamax microplate reader (Molecular Devices). […] After incubation for 16 hours at 37° C. bacterial growth was evaluated and documented (Alpha Innotech gel documentation system).

P. acnes, ATCC 6919 = test: Broth microdilution assay for P. acnes MBC, Table 4B; type: cell-based, Propionibacterium acnes; conditions: 3 log or greater reduction in CFU/milliliter after 2.5 hours
Text: The strain of P. acnes was purchased from ATCC (strain #6919) (Manassas, Va.). […] HeLa cells were purchased from ATCC (CCL2). Tryptic soy broth (TSB), Brucella broth, reinforced Clostridial broth and agar were purchased from Becton & Dickinson (distributed by VWR, West Chester, Pa.). All plastic consumables were purchased from VWR (West Chester, Pa.). Chemicals were purchased from Sigma Aldrich (St. Louis, Mo.). DMEM, antibiotics and cell culture supplements were purchased from Invitrogen (Carlsbad, Calif.), fetal calf serum (FCS) was purchased from Hyclone (Logan, Utah). […] For propagation in liquid culture individual colonies were inoculated in […] of TSB broth for 16 hours at 37° C. under constant shaking. P. acnes was grown on Brucella broth blood agar plates (supplemented with 5% defibrinated sheep blood, […] hemin and […] vitamin K) under anaerobic conditions (GasPak system, Becton & Dickinson) for 96 hours at 37° C. For propagation in liquid culture individual colonies were inoculated in […] of reinforced Clostridial broth under anaerobic conditions for 72 hours at 37° C. […] The minimum bactericidal concentration (MBC) of peptide compositions for P. acnes was determined in a microdilution assay. […] The appearance of bacterial colonies was evaluated and documented.

Jurkat cells = type: cell-based; conditions: 16 h
Experimental: Toxicity of peptide compositions for mammalian cells was determined by using a metabolic viability assay. For this assay 4×10^5 HeLa cells were seeded per well into a microwell plate (50 microliters volume). Jurkat cells also were utilized in separate experiments. The cells were incubated for 16 hours at 37° C. under mammalian cell culture conditions. Two fold serial dilutions for each peptide were prepared and added to the cells (final volume 100 microliters) and incubated for 16 hours at 37° C. For each dilution series control wells containing cells without peptide were included. The metabolic activity and viability of the cells were determined by using a commercially available assay (CellTiter96 assay, Promega Corp.). According to manufacturer's protocol 20 microliters of CellTiter reagent was added to each well and incubated at 37° C. for 1-4 hours. The CellTiter assay is a commercial version of the MTT assay, which measures the conversion of a tetrazolium […] into a colored formazan salt in metabolically active cells. The formation of the formazan product can be measured at 470 nm and is generally accepted as a measure of cellular viability. The cells were incubated at 37° C. and monitored for color development. The conversion of CellTiter reagent was measured at 470 nm using a Versamax plate reader (Molecular Devices). The viability of peptide treated cells is expressed as IC50 (i.e., concentration that leads to a 50% reduction of viability relative to the untreated control). Table 7A reports IC50 values for HeLa cells cultured in OptiMEM or 10% FBS when contacted with peptide compositions from Table 3, and Table 7B reports IC50 values for HeLa cells or Jurkat cells contacted with peptide compositions from Table 3.

E. coli K12 TOP10 = conditions: 3 log or greater reduction in bacterial growth over 16 hours
[1] = system: E. coli K12 55099 (protease neg.); conditions: 3 log or greater reduction in bacterial growth over 16 hours

SMILES: CSCC[C@@H](NC(=O)[C@@H](Cc1ccccc1)NC(=O)[C@@H](CC(N)=O)NC(=O)[C@@H](CCCNC(=N)N)NC(=O)[C@@H](CO)NC(=O)[C@@H](Cc1c[nH]c2ccccc12)NC(=O)[C@@H](CC(=O)O)NC(=O)[C@@H](CCCNC(=N)N)NC(=O)[C@@H](Cc1c[nH]c2ccccc12)NC(=O)[C@@H](CCCNC(=N)N)NC(=O)[C@@H](CO)NC(=O)[C@@H](CCCNC(=N)N)NC(=O)CNC(=O)[C@H](NC(=O)[C@@H](CCCNC(=N)N)NC(=O)[C@@H](CO)NC(=O)[C@H](NC(=O)[C@@H](CCCNC(=N)N)NC(=O)[C@H](NC(C)=O)[C@H](C)O)C(C)C)[C@H](C)O)C(=O)N[C@H](CCCNC(=N)N)C(=O)N[C@H](C)C(=O)N[C@H](C)C(N)=O [Peptide 30, Ac-trvsrtgrsrwrdwsrnfmraa-NH2]
- Minimum inhibitory concentration (MIC) S. aureus (S. aureus (Rosenbach)): 8 µM (≈ 22.4 µg/mL)
- Minimum bactericidal concentration (MBC) for P. acnes (P. acnes, ATCC 6919): 8 micromolar units
- IC50 (Jurkat cells): > 100 µM
- Minimum inhibitory concentration (MIC) E. coli Top10 (E. coli K12 TOP10): 4 µM (≈ 11.2 µg/mL)
- Minimum inhibitory concentration (MIC) E. coli 55099 [1]: 2 µM (≈ 5.59 µg/mL)
